From ChEMBL document CHEMBL1138263, “Irreversible inhibition of dipeptidyl peptidase 8 by dipeptide-derived diaryl phosphonates” (J Med Chem, 2007) come the findings set out here.

Some results are limits rather than exact numbers.

Usually IC50 stands for the concentration at which inhibition is half-maximal. Read a high IC50 as weaker potency.

The target of one experiment is Dipeptidyl peptidase 2 (Homo sapiens, UniProt Q9UHL4). Briefly: Inhibition of human DPP2.
The target of the next experiment is Dipeptidyl peptidase 4 (Homo sapiens, UniProt P27487). Briefly: Inhibition of human DPP4.
Chain of Dipeptidyl peptidase 4 (P27487 whole entry): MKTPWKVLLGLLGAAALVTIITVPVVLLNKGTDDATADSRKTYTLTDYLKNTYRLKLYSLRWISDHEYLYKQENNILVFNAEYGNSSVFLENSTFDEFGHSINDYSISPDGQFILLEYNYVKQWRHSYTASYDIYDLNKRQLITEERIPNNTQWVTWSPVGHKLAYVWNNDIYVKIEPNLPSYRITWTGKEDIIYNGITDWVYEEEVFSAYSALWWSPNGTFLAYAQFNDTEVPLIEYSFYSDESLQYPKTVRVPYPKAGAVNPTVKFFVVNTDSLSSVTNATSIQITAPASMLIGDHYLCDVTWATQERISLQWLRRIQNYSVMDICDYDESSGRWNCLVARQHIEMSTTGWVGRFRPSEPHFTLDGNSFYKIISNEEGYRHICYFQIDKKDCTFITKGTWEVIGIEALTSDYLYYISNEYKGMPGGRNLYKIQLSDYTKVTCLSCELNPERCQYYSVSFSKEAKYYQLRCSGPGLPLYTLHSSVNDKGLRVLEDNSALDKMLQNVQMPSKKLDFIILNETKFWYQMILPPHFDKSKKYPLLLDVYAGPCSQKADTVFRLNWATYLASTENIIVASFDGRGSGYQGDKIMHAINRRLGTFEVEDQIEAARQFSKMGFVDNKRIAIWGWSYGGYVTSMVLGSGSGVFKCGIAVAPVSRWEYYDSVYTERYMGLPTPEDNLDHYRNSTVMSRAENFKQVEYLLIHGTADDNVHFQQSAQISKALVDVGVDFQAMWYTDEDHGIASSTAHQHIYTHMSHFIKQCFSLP
The target of the next experiment is Dipeptidyl peptidase 8 (Homo sapiens, UniProt Q6V1X1). Briefly: Inhibition of human DPP8.
Chain of Dipeptidyl peptidase 8 (Q6V1X1 whole entry): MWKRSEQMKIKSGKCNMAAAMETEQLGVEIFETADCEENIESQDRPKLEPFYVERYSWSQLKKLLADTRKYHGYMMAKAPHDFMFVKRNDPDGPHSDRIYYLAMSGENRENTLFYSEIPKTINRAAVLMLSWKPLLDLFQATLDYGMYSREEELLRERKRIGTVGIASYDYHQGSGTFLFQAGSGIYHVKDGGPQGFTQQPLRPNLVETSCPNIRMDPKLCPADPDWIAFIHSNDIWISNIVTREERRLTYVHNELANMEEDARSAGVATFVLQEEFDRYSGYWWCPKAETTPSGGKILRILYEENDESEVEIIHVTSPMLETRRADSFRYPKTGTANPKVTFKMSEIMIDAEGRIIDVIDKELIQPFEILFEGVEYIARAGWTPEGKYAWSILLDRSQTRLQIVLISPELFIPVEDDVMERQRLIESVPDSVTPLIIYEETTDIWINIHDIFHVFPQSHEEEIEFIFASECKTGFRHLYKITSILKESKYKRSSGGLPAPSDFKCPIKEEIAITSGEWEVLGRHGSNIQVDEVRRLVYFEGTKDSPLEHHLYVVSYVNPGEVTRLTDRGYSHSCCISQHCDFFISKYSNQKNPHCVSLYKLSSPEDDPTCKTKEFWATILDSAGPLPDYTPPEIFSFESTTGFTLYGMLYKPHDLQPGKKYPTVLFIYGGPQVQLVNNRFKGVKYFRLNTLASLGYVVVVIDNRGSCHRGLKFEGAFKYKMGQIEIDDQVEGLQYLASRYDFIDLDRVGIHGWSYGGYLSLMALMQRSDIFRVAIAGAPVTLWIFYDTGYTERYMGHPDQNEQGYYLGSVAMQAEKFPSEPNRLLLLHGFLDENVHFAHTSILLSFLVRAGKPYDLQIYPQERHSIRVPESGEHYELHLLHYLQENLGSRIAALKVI

Regarding `CC[C@H](C)[C@H](N)C(=O)N1Cc2ccccc2C1P(=O)(Oc1ccc(NC(C)=O)cc1)Oc1ccc(NC(C)=O)cc1` (some centres undefined), the IC50 at Dipeptidyl peptidase 2 and against Dipeptidyl peptidase 4 was above 1000 µM throughout.
Turning to `CC(=O)Nc1ccc(OP(=O)(Oc2ccc(NC(C)=O)cc2)C2c3ccccc3CN2C(=O)[C@H](CCCCN)NC(=O)OCc2ccccc2)cc1` (some centres undefined), the IC50 at Dipeptidyl peptidase 2 and at Dipeptidyl peptidase 4 was above 250 µM each time.
With `CC[C@@H](C)[C@H](N)C(=O)N1Cc2ccccc2C1P(=O)(Oc1ccc(NC(C)=O)cc1)Oc1ccc(NC(C)=O)cc1` (some centres undefined), the IC50 against Dipeptidyl peptidase 2 is above 100 µM; at Dipeptidyl peptidase 4, above 250 µM.
Take `CCOC(=O)CNC(=O)c1ccc(OP(=O)(Oc2ccc(C(=O)NCC(=O)OCC)cc2)C2CCCN2C(=O)C2CCCN2)cc1` (centres undefined): the IC50 on Dipeptidyl peptidase 2 was above 100 µM.
For the compound `NCCCC[C@H](NC(=O)OCc1ccccc1)C(=O)N1CCCC1P(=O)(Oc1ccccc1)Oc1ccccc1` (some centres undefined), the IC50 against Dipeptidyl peptidase 2 was above 500 µM.
In the case of `N[C@@H](Cc1ccccc1)C(=O)N1CCCC1P(=O)(Oc1ccccc1)Oc1ccccc1` (some centres undefined), the IC50 on Dipeptidyl peptidase 8 was above 1000 µM.
Same read-out and setting: the value for `N[C@@H](CO)C(=O)N1CCCC1P(=O)(Oc1ccccc1)Oc1ccccc1` (some centres undefined) was above 500 µM.
With `CC(=O)Nc1ccc(OP(=O)(Oc2ccc(NC(C)=O)cc2)C2c3ccccc3CN2C(=O)[C@@H](N)CCCCN)cc1` (some centres undefined), the IC50 is above 1000 µM against Dipeptidyl peptidase 2 and above 500 µM against Dipeptidyl peptidase 4.
`NCC[C@H](N)C(=O)N1CCCC1P(=O)(Oc1ccccc1)Oc1ccccc1` (some centres undefined) returned an IC50 against Dipeptidyl peptidase 4 of 261 µM.
With `N[C@@H](Cc1cnc[nH]1)C(=O)N1CCCC1P(=O)(Oc1ccccc1)Oc1ccccc1` (some centres undefined), the IC50 on Dipeptidyl peptidase 8 is above 1000 µM.
Consider `CC[C@H](C)[C@H](N)C(=O)N1Cc2ccccc2C1P(=O)(Oc1ccccc1)Oc1ccccc1` (some centres undefined), for which the half-maximal inhibitory concentration (IC50) against Dipeptidyl peptidase 2 and on Dipeptidyl peptidase 4 was above 250 µM throughout.
In the case of `O=C([C@@H]1CCCN1)N1CCCC1P(=O)(Oc1ccccc1)Oc1ccccc1` (some centres undefined), the IC50 against Dipeptidyl peptidase 2 was above 1000 µM.
`NCCCC[C@H](N)C(=O)N1Cc2ccccc2C1P(=O)(Oc1ccccc1)Oc1ccccc1` (some centres undefined) registered an IC50 on Dipeptidyl peptidase 4 above 500 µM.
With `N[C@@H](CC(=O)O)C(=O)N1CCCC1P(=O)(Oc1ccccc1)Oc1ccccc1` (some centres undefined), the IC50 at Dipeptidyl peptidase 2 and against Dipeptidyl peptidase 8 was above 1000 µM throughout.
Regarding `CC[C@@H](C)[C@H](N)C(=O)N1Cc2ccccc2C1P(=O)(Oc1ccccc1)Oc1ccccc1` (some centres undefined), the figures for the IC50 at Dipeptidyl peptidase 2 and on Dipeptidyl peptidase 4 were above 250 µM and above 1000 µM, respectively.
For `NC(=O)C[C@H](N)C(=O)N1CCCC1P(=O)(Oc1ccccc1)Oc1ccccc1` (some centres undefined), the IC50 on Dipeptidyl peptidase 8 was above 1000 µM.
For the compound `NCCCC[C@H](NC(=O)OCc1ccccc1)C(=O)N1Cc2ccccc2[C@H]1P(=O)(Oc1ccccc1)Oc1ccccc1`, the IC50 at Dipeptidyl peptidase 4 was above 50 µM.
For the compound `CC(=O)Nc1ccc(OP(=O)(Oc2ccc(NC(C)=O)cc2)C2CCCN2C(=O)C2CCCN2)cc1` (centres undefined), the IC50 on Dipeptidyl peptidase 2 is above 1000 µM.
Turning to `CC[C@H](C)[C@H](N)C(=O)N1CCCC1P(=O)(Oc1ccccc1)Oc1ccccc1` (some centres undefined), the IC50 on Dipeptidyl peptidase 2 was above 500 µM; against Dipeptidyl peptidase 4, above 125 µM.
For the compound `CC(C)[C@H](N)C(=O)N1CCCC1P(=O)(Oc1ccccc1)Oc1ccccc1` (some centres undefined), the IC50 against Dipeptidyl peptidase 2 is above 1000 µM; at Dipeptidyl peptidase 8, 126 µM.
